By IC50 is commonly meant the concentration at which inhibition is half-maximal.

SMILES strings stand for the structures.

The subject of the assay is adenosine-uptake system. In words: Inhibition of the adenosine uptake in rabbit erythrocytes. It is filed as cell-based. To be noted: Oryctolagus cuniculus, 0.25 h; rabbit erythrocyte preparation; concentration at which 50% of the adenosine originally employed is still present 15 min after addition of adenosine; 30° C.; read-out: IC50 (inhibition of functional adenosine uptake). As to the method: 2. Inhibition of the Adenosine Uptake in Rabbit Erythrocytes by the Compounds According to the Invention
The capability of substances to influence the adenosine-uptake system is investigated by determining the inhibitory effect of the substances on functional adenosine uptake.
For the functional adenosine-uptake test, an erythrocyte preparation from rabbit blood is used. The blood is drawn intravenously using citrate (3 ml Monovette 9NC from Sarstedt) as anticoagulant. The blood is centrifuged at 3000 g for 5 min and the erythrocytes are suspended in 10 mM 3-(N-morpholino)propanesulphonic acid buffer (MOPS)/0.9% NaCL solution pH7.4. The suspension is diluted to one hundredth of the original blood volume. In each case, 990 μl of the suspension are admixed with 10 μl of a suitable concentration of the substance to be investigated, and the mixture is incubated at 30° C. for 5 min. 5 μl of a 4 mM adenosine solution are then added, and the mixture is incubated at 30° C. for another 15 min. The samples are then centrifuged at 3000 g for 5 min and in each case 700 μl of the supernatant are admixed with 28 μl of 70% strength HClO4, allowed to stand in an ice bath for 30 min and centrifuged at 16,000 g for 3 min, and 350 μl of the sample are neutralized using 30 μl of 5N NaOH. 50 μl of the sample are applied to a column (Waters Symmetry C18 5 μm 3.9×150 mm). A Spherisorb ODS II 5 μm 4.6×10 mm column is used as precolumn. The mobile phase used is a gradient of […] KH2PO4/5 mM tributylamine pH7 (mobile phase A) and a mixture of mobile phase A/methanol 1/1 (mobile phase B). The gradient is from 10 to 40% B, at a flow rate of 0.5 ml/min. The adenosine which is present is quantified by its absorption at 260 nm, as are the hypoxanthine and inosine formed. The IC50 is the concentration of active compound at which, 15 min after addition of adenosine, 50% of the adenosine concentration originally employed is still present.
`NC(=O)[C@@H](NC(=O)[C@@H]1CCCC[C@H]1c1ccc(CN(C(=O)N2CCOCC2)c2ccccc2)cc1)c1ccccc1` [Example 1-1, N-{4-[(1R,2R)-2-({[(1S)-2-Amino-2-oxo-1-phenylethyl]amino}carbonyl)cyclohexyl]benzyl}-N-phenyl-4-morpholinecarboxamide]: the IC50 worked out at 30 nM.

Take `CN(C)C(=O)N(Cc1ccc([C@@H]2CCCC[C@H]2C(=O)N[C@H](C(N)=O)c2ccccc2)cc1)c1ccccc1` [Example 1-3]: the IC50 turned out to be 20 nM.

For `CN(C)C(=O)N(Cc1ccc([C@@H]2CCCC[C@H]2C(=O)N[C@H](C(N)=O)c2ccccc2)cc1)C1CC1` [Example 1-14], the IC50 came out at 30 nM.

Regarding `CCN(CC)C(=O)N(Cc1ccc([C@@H]2CCCC[C@H]2C(=O)N[C@H](C(N)=O)c2ccccc2)cc1)c1ccccn1` [Example 1-33], the 50% inhibitory concentration (IC50) came to 40 nM.

On to `CCN(CCO)C(=O)N(Cc1ccc([C@@H]2CCCC[C@H]2C(=O)N[C@H](C(N)=O)c2ccc(F)cc2)cc1)c1ccc(F)cc1` [Example 2-1, (1R,2R)-N-[(1S)-2-Amino-1-(4-fluorophenyl)-2-oxoethyl]-2-(4-{[{[ethyl(2-hydroxyethyl)amino]carbonyl}(4-fluorophenyl)amino]methyl}phenyl)cyclohexanecarboxamide], for which the IC50 was 20 nM.

Take `CCN(CCO)C(=O)N(Cc1ccc([C@@H]2CCCC[C@H]2C(=O)N[C@H](C(N)=O)c2ccccc2)cc1)c1ccccc1` [Example 2-18, (1R,2R)-N-[(1S)-2-Amino-1-phenyl-2-oxoethyl]-2-(4-{[{[ethyl(2-hydroxyethyl)-amino]carbonyl}(phenyl)amino]methyl}phenyl)cyclohexanecarboxamide]: the IC50 amounted to 20 nM.
